Measured values as given in ChEMBL document CHEMBL3507680, “University of Dundee, Gates Library screen for HepG2 cell viability”.

Assay: Human HepG2 cell viability assay in 384 well format
Format: toxicity, cell-based
Parameters: dose 125 nL, time 70.5 hour; cytotoxicity at 70.5 h: concentration not given beside the values
Details: HepG2 cells, read-out: Inhibition

Row | SMILES | cytotoxicity at 70.5 h [%]
1 | Cc1occc1C(=O)N1CCCN(Cc2cnn(C(C)C)c2)CC1 | -6.65
2 | Cc1cc(N(C)Cc2noc(C)n2)n2nc(C)c(C)c2n1 | -8.45
3 | O=C(C1CCC1)N1CCC2(CC1)CNCCO2 | 4.67
4 | CCN(C(=O)C1CC1)C(c1cccnc1)c1ccc2c(c1)CCO2 (centres undefined) | -5.96
5 | COCCN1C[C@@H]2[C@@H](OC)CCN(C(=O)Cc3ccccc3)[C@@H]2C1 | -1.17
6 | O=C(CCc1ccsc1)N1CCC(n2cc(CO)nn2)CC1 | -13.1
7 | CCn1nc(C)c2ncnc(NCC(=O)N3CCOCC3)c21 | -11.2
8 | CC(CNC(=O)c1cc(C2CC2)on1)N1CCc2ccccc21 (centres undefined) | 2.16
9 | Cc1noc(C)c1CCC(=O)NC(C)c1nnc2n1CCC2 (centres undefined) | 8.52
10 | Cc1nn(-c2ccc(F)cc2)c2[nH]nc(N)c12 | 8.73
11 | Cc1cc(C)n(CCC(=O)N2CCCC(n3cncn3)C2)n1 (centres undefined) | 25.8
12 | Cc1nc(C2CCCN2Cc2cc(Cl)c3c(c2)OCCCO3)no1 (centres undefined) | -7.15
13 | Cc1cccc(C(=O)N2CCCC2)c1NCC(=O)NC1(C#N)CCCC1 | -4.19
14 | O=C(C1NCCc2[nH]cnc21)N1CCC2(C=Cc3ccccc32)CC1 (centres undefined) | -7.07
15 | Cc1cc(CN2CCC(CNS(=O)(=O)c3ccc(Br)s3)CC2)c(C)o1 | -7.28
16 | c1cc(CNCc2cccc3c2OCCCO3)cc(Cn2cncn2)c1 | -8.37
17 | Cc1ccc2nc(C3CCCN3Cc3cccc(CCN)c3)[nH]c2c1 (centres undefined) | -4.63
18 | Cc1ccc(S(=O)(=O)NC(=O)CCc2ccco2)cc1N(C)C | 20.1
19 | CCc1nnc(SCc2cc(=O)n3c4c(sc3n2)CCCC4)[nH]1 | -1.82
20 | COCCC(=O)N1C[C@@H](c2ccccc2F)[C@@]2(CCCC(=O)N2)C1 | -7.07
21 | COc1cnc(CN2CC(=O)N(c3ccc(C)cc3)CC2C)cc1O (centres undefined) | -5.7
22 | CSCc1noc(CNC(=O)[C@H]2CNC[C@@H](C(=O)N3CCCC3)C2)n1 | -14.4
23 | COc1ccc(S(=O)(=O)C2CCN(C(=O)c3cc(C)cs3)CC2)cc1 | 1.95

Row | SMILES | cytotoxicity at 70.5 h [%]
24 | CN(Cc1ncc(C(C)(C)C)o1)CC1CCCN1c1cccnn1 (centres undefined) | 23.4
25 | CC(C)NC(=O)N1CCOC2(CNC2)C1 | -4.25
26 | CC(CN1CCCC1=O)NC(=O)NCc1ccccc1-n1cccn1 (centres undefined) | -11.4
27 | Cc1cccc(C(=O)N2CCCN(Cc3cscn3)CC2)c1 | -4.03
28 | Cc1cc(C)cc(C2(C(=O)NCC(C)CN3CCCC3=O)CC2)c1 (centres undefined) | -8.76
29 | Cc1ccc(CNCCS(=O)(=O)N2CCOCC2)cc1C | -6.06
30 | Cc1ccc(CN2CC[C@@H]3OCCN(S(C)(=O)=O)[C@H]3CC2)s1 | -3.31
31 | COCCN1CCCC1c1ccnc(-c2ccccc2)n1 (centres undefined) | -4.49
32 | Cc1cc(C)cc(OCCN(C)C2CCOC2=O)c1 (centres undefined) | 1.42
33 | Cc1nc(C)n(CC2CCCN2CCC(=O)N2CCCCC2)n1 (centres undefined) | -5.35
34 | Cc1cc(C)c2c(N3CCN(Cc4ncccc4C)CC3)ncnc2n1 | -8.35
35 | CCCc1noc(CN2CCN(CCC(C)C)CC2)n1 | -2.49
36 | Cc1cnc(N2CC[C@H]3[C@@H]2CCC(=O)N3c2cccnc2)nc1 | -2.59
37 | CCN(C(=O)CN1CCCC1c1ccc(F)cc1)c1ccccc1C (centres undefined) | -3.01
38 | O=C(c1ccc(OCC2CC2)nc1)N1CCCC(n2cccn2)C1 (centres undefined) | -7.07
39 | CCOc1ncccc1NC(=O)NC1CCN(C(=O)C2CC2)CC1 | 3.99
40 | O=C(c1cnccn1)N1C[C@@H]2C[C@@H](c3nc(C4CC4)cs3)O[C@@H]2C1 | -1.34
41 | CC(C)Nc1ncc(CN2C[C@@H](CN3CCC(O)CC3)[C@@H](CO)C2)cn1 | -3.95
42 | CCCc1nnc(NC2CCN(Cc3ccc(F)c(F)c3)CC2)o1 | -6.56
43 | Cc1nc(CNC2CCCN(c3cccnn3)C2)no1 (centres undefined) | 22
44 | O=C(NCc1csc(Br)c1)c1cnccn1 | -13.5
45 | COC(=O)c1ccc(NC(=O)[C@@H]2CCCN2C(=O)c2ccco2)s1 | -7.02
46 | Cc1csc(N2CCN(C(=O)Cc3ccc(C)s3)CC2)n1 | 3.83

Row | SMILES | cytotoxicity at 70.5 h [%]
47 | Cc1nc(CN2CCCC2Cn2ccnc2C(C)C)nc2ccccc12 (centres undefined) | 19.9
48 | CN1CCOC(C(=O)N2CCC3(CCCCC3)C2)C1 (centres undefined) | -5.38
49 | O=C(NCCN1CCCCC1)c1cccc(Cl)c1Cl | -8.61
50 | CCC(CO)N(Cc1cccs1)C(=O)Cc1ccc(O)cc1 (centres undefined) | 16.3
51 | Cc1cc(=O)n2nc(Oc3ccc(F)c(F)c3)sc2n1 | 40.7
52 | O=C(c1csc(Br)c1)N1CCCC(n2ccnc2)C1 (centres undefined) | 12.4
53 | COCCN1CCc2cc(C(=O)O)c(-c3ccoc3)nc2CC1 | -12.3
54 | Cc1nc(CC(=O)N2CCOC(c3nc(C(C)(C)C)n[nH]3)C2)cs1 (centres undefined) | 20.6
55 | O=S(=O)(N1CCOCC1)N1CCOC(CCCc2ccccc2)C1 (centres undefined) | -11.2
56 | c1cnc(-c2nc(CN3CCCN(Cc4cccs4)CC3)cs2)nc1 | -3.19
57 | CC(=O)N1N=C(c2cccs2)OC1C(=O)Nc1ccccc1 (centres undefined) | -8.33
58 | COc1cccc(N2CC3(CCN(c4ccc(C)nn4)C3)CC2=O)c1 (centres undefined) | -2.78
59 | Cc1csc(C2CCCCN2C(=O)CN(C)Cc2ccccc2)n1 (centres undefined) | -8.36
60 | Nc1ccc(C(=O)N2C[C@@H]3CC[C@H](C2)N(Cc2ccccc2)C3)cn1 | -2.24
61 | CCCNC(=O)c1ccc2c(c1)C(=O)N(CC(C)C)C2=O | -1.77
62 | OC(COCc1ccc(Cl)cc1)CN1CCC(c2ccn[nH]2)CC1 (centres undefined) | -1.37
63 | O=C(Nc1cccc(N2CCOCC2)c1)N[C@H](CO)c1ccccc1 | -1.11
64 | COc1ccc2c(c1)OCC(CNC(=O)c1ccc3[nH]nnc3c1)C2 (centres undefined) | -9.44
65 | CN(CC(=O)N1CCCC1c1noc(C2CC2)n1)C1CC1 (centres undefined) | -8.76
66 | CSCc1noc(CNC(=O)c2cc(C)c(C)[nH]c2=O)n1 | -5.2
67 | Cc1nc(CN2CCCC(CCc3c(F)cccc3F)C2)c[nH]1 (centres undefined) | -2.43
68 | CC(C)(C)c1nnc2n1C(C(=O)N1CCN(c3ncccn3)CC1)CC2 (centres undefined) | -11.2
69 | CC(C)N[C@@H]1CO[C@H](CNC(=O)c2cccs2)[C@H]1O | 1.83

Row | SMILES | cytotoxicity at 70.5 h [%]
70 | N#Cc1ccc(NCCS(=O)(=O)N2CCc3ccccc32)nc1 | 13
71 | O=C(c1ccc(F)c(F)c1)N1CCC[C@]2(C[C@@H](OCC3CC3)CO2)C1 | -12.6
72 | CC(=O)NCCNC(=O)CN1CCN(Cc2nccn2C)C(C)C1 (centres undefined) | -2.6
73 | Fc1cnc(N2C[C@H]3CCC[C@@]3(COc3ccccn3)C2)nc1 | -7.17
74 | CNc1cncc(C2CCCN2C(=O)Cn2ccnc2C)n1 (centres undefined) | -5.3
75 | CCN(C)CC(=O)N1CCc2nc(NC)nc(C(=O)N3CCCC3)c2C1 | 2.56
76 | CN1CCN(c2cc(CNC(=O)c3cccnc3O)ccn2)CC1 | -1.85
77 | CC(Cn1cncn1)NCCN1CCc2ccccc21 (centres undefined) | -5.52
78 | CO[C@H]1CN(C)S(=O)(=O)[C@@]12CCN(Cc1ccccc1)C2 | -3.43
79 | Cc1cc(C)n(CC2CCCN2C(=O)c2ccc(N(C)C)nn2)n1 (centres undefined) | -10.8
80 | Cc1cc(C(=O)NCc2ccc(F)cc2)nc(C2CCCN2C)n1 (centres undefined) | -2.73
81 | O=C1CC(C2CCCCC2)c2c(n(C3CCCC3)[nH]c2=O)N1 (centres undefined) | 2.99
82 | O=S(=O)(C1CC1)N1CCO[C@H]2[C@H](OCC3CCCC3)CC[C@@H]21 | 1.94
83 | COCCN1CCC2(C1)c1ccccc1S(=O)(=O)N2Cc1ccccc1 (centres undefined) | 1.99
84 | CCOCC1CN(C(=O)c2ccnnc2)Cc2cnn(C)c21 (centres undefined) | -4.89
85 | COCCCN1CCC(NC(=O)C(C)C)CC1 | 7.82
86 | CN1CCc2ncc(CNC(=O)c3cccn3C)n2CC1 | -7.23
87 | Cc1nc(Cc2ccccc2)nc2sc(C(=O)O)c(C)c12 | -5.63
88 | CC(=O)NCCNC(=O)c1cc(C)ccc1SC1CCCC1 | -11.6
89 | N#CCSCCCN1CCN(C(=O)c2ccc(Cl)cc2)CC1 | 6.83
90 | COc1cccc(C(O)CN2CCN(C(=O)CCC(C)C)CC2)c1 (centres undefined) | 9.11
91 | Cn1ccc(CN2CCC(Cc3ccccc3)CC2)cc1=O | 0.151
92 | c1ccc(Oc2ccc(OC34CCCN(CC3)C4)cc2)cc1 (centres undefined) | -9.13

Row | SMILES | cytotoxicity at 70.5 h [%]
93 | Cc1nccn1[C@@H]1CC[C@@H](N(C)S(=O)(=O)c2ccc(F)cc2)[C@H]1O | -3.16
94 | COCC1CCCCN1C(=O)c1cc(-c2cccc(OC)c2)n[nH]1 (centres undefined) | -6.73
95 | Cn1cc(C2CC3(CCN(C(=O)c4ccsc4)CC3)NC2=O)cn1 (centres undefined) | -0.304
96 | CC(C)(C)c1ccc(=O)n(CN2CCCC(C(F)(F)F)C2)n1 (centres undefined) | -7.29
97 | Cc1nc(N2CCC(C(O)c3nccn3C)CC2)c2sccc2n1 (centres undefined) | 35.8
98 | CC(C(=O)Nc1ccc2ccccc2c1)N1CCC(n2ccnc2)CC1 (centres undefined) | -4.02
99 | Cn1ccnc1CNC(=O)CC1CCCCO1 (centres undefined) | -6.84
100 | Cc1cc(N2CCC(n3cc(CN4CCSCC4)nn3)CC2)ccn1 | 1.06
101 | COCCn1c(CN2CCCCO2)cnc1S(=O)(=O)CC1CCCCC1 | -2.46
102 | Cc1ccc(C(C)NC(=O)N2CCNC(=O)CC2)cc1F (centres undefined) | -17.7
103 | Cc1nc(C2CCCN(C(=O)COCc3ccccc3Cl)C2)no1 (centres undefined) | -7.76
104 | CC(c1ccon1)N(C)C(=O)C1CCN(C(=O)C2CC2)CC1 (centres undefined) | -4.84
105 | COCCOc1ncccc1C(=O)N1CCCC(n2ccnc2C)C1 (centres undefined) | -13.5
106 | Cc1cccc(NC(=O)c2[nH]nc(C(C)C)c2Br)n1 | 23.8
107 | Cc1n[nH]c2c1C(c1ccncc1)SCC(=O)N2 (centres undefined) | 19.3
108 | O=C(c1cccs1)N1CCc2nnc(COc3cncnc3)n2CC1 | 14.1
109 | CN(C)S(=O)(=O)c1csc(C(=O)N2CCSCC2)c1 | -1.94
110 | CC(C(=O)NCCN1CCCCCC1)n1cncn1 (centres undefined) | -0.492
111 | O=C(N[C@@H]1CCN(Cc2cc3ccccc3s2)C[C@H]1O)c1cccnc1 | -3.4
112 | Cc1ccccc1OCC(O)CN1CCC(Cn2cccn2)CC1 (centres undefined) | 2.37
113 | CCc1nc(C)cc(NC(C)C(=O)Nc2cc(F)ccc2C)n1 (centres undefined) | -15.5
114 | Cc1nn(-c2ccccc2)c(C)c1CN1CCNCC1 | 27.3
